Assay results as given in paper PMC2758050 (Bioorganic & medicinal chemistry letters, 2009).
Where two headings read alike, the source gives them in different places.

Key:
mMC5R = mMC5R (Mus musculus, UniProt P41149); test: Agonist activity of N-capped tripeptides on mouse MC5 receptor
[1] = system: DNA damage resulting from exposure to solar UV radiation; details: compared with α-MSH; ref 4a; cited from earlier work
hMC1R = details: cited from earlier work; for EC50: read-out: EC50 hMC1R, agonist
mMC4R = mMC4R (Mus musculus, UniProt P56450); test: Agonist activity of N-capped tripeptides on mouse MC4 receptor
mMC1R = mMC1R (Mus musculus, UniProt Q01727); test: Agonist activity of N-capped tripeptides on mouse MC1 receptor
hMC4R = details: ref 3b; cited from earlier work
hMC3R = details: ref 3b; cited from earlier work

Sequence of mMC1R (Q01727 whole entry): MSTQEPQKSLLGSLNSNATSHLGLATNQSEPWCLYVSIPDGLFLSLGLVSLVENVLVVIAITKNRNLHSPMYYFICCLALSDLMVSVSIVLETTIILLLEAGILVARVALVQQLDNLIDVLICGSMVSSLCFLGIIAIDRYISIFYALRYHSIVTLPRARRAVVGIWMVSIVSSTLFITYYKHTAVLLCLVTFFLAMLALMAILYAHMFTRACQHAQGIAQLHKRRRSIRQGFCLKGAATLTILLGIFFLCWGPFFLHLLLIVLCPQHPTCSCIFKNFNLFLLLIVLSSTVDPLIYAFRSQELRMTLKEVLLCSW
Sequence of mMC4R (P56450 whole entry): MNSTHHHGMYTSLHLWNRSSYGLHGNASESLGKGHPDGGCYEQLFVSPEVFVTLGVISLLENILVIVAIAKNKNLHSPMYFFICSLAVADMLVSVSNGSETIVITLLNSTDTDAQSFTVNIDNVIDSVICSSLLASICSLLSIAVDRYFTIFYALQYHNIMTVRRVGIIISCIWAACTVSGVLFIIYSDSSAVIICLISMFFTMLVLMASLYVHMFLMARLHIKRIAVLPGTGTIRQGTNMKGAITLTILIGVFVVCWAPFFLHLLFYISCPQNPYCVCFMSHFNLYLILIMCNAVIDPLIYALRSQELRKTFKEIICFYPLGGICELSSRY
Sequence of mMC5R (P41149 whole entry): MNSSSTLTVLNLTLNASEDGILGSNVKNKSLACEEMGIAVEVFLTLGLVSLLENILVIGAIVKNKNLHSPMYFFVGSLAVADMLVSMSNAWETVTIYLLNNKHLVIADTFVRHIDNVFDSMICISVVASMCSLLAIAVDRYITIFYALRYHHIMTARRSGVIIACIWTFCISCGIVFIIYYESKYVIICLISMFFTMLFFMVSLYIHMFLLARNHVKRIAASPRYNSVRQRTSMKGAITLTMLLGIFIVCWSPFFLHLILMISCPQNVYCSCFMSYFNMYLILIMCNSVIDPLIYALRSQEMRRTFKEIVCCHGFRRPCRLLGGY

Structure (SMILES) | EC50 (mMC5R) [pM] | potency in repairing DNA damage resulting from solar UV radiation [1] | EC50 (hMC1R; ref 3a) [pM] | EC50 (mMC4R) [pM] | EC50 (mMC1R) [pM] | type of agonism at hMC4R (hMC4R) | type of agonism at hMC3R (hMC3R) | EC50 (hMC1R; ref 3b) [pM] | type of agonism at hMC1R (hMC1R; ref 3b) | loss in potency compared to 1 at mMC1R (mMC1R; vs tetrapeptide 1) [fold]
N=C(N)NCCC[C@H](NC(=O)[C@@H](Cc1ccccc1)NC(=O)[C@H](Cc1c[nH]cn1)NC(=O)CCCc1ccccc1)C(=O)N[C@@H](Cc1c[nH]c2ccccc12)C(N)=O [Compound 1, Ph(CH2)3CO-His-D-Phe-Arg-Trp-NH2] | 330 ± 140 | more potent than α-MSH | 10 | 540 ± 190 | 1600 ± 290 | – | – | – | – | –
N=C(N)NCCC[C@H](NC(=O)[C@@H](Cc1ccccc1)NC(=O)[C@H](Cc1c[nH]cn1)NC(=O)CCCc1ccccc1)C(N)=O [Compound 2, Ph(CH2)3CO-His-D-Phe-Arg-NH2] | – | – | – | – | – | weak partial agonism | weak partial agonism | 5000 | full hMC1 agonist | 590
